Data set [1] has as its system primary human lung fibroblasts. Kind of data set: TGFβ-induced myofibroblast formation, αSMA Western blot and cell images, primary human lung fibroblasts. Type of data set: cell-based. On the procedure:
Human lung fibroblasts were treated with various concentrations of 10-hydroxycamptothecin (HCPT) (50 nM or 500 nM) and induced to form scar-forming myofibroblasts by treating with TGFβ.

Data set [2] concerns primary mouse lung fibroblasts. The data set can be described thus: TGFβ-induced myofibroblast formation, αSMA Western blot, primary mouse lung fibroblasts. Type of data set: cell-based. As to conditions: HCPT 50 nM to 500 nM. In general terms: A western blot detects proteins with antibodies after separation by electrophoresis.
Procedure: Salinomycin and alexidine served as positive controls for anti-fibrotic activity. Western blots were performed using cell lysates from the fibroblasts exposed to TGFβ to assess TGFβ-dependent αSMA expression.
Data set [3] relates to primary human orbital fibroblasts. The data set can be described thus: TGFβ-induced myofibroblast formation, αSMA Western blot, primary human orbital fibroblasts. Particulars: HCPT 50 nM to 500 nM, TGFβ.
Procedure: Total protein was isolated from 0.5-2×10^6 cells and lysed in 60 mM Tris, pH 6.8, 2% SDS containing 1× protease inhibitor cocktail (Sigma, St. Louis, Mo.). The lysates were passed through a 26 gauge needle 5-6 times to shear genomic DNA. Protein concentrations were determined using the detergent compatible protein assay (BioRad). Total protein (1-10 ug per lane) was subjected to SDS-PAGE. Protein gels were transferred to PVDF membrane (Millipore) and probed with antibodies as specified. Western blot band intensities were quantified using ImageLab software (BioRad). Protein expression was normalized to β-tubulin levels.
Primary human orbital fibroblasts, primary human lung fibroblasts, and primary mouse lung fibroblasts were treated with TGFβ and HCPT (50 nM, 500 nM, and 5000 nM) or SNC (500 nM) or AXD (0.5 μM, 5 μM, and 50 μM) to assess the ability of HCPT to inhibit myofibroblast formation. […] Western blots were performed using cell lysates from the fibroblasts exposed to TGFβ to assess TGFβ-dependent αSMA expression.
Primary human orbital fibroblasts were treated with TGFβ and either 6-formylindolo(3,2-b)carbazole (“FICZ”, 1 μM), Omeprazole (“Ome”, 2 μM, 10 μM, 50 μM, 100 μM, 250 μM, 500 μM), or Flutamide (“Flut”, 2 μM, 10 μM, 50 μM, 100 μM, 250 μM, 500 μM) to assess their ability to inhibit myofibroblast formation. […] Western blots were performed using cell lysates from the fibroblasts exposed to TGFβ to assess TGFβ-dependent αSMA expression. Densitometry analyses of the Western blots were also performed.

“Also recorded” adds a separate entry of the source.

With `CC[C@@]1(O)C(=O)OCc2c1cc1n(c2=O)Cc2cc3cc(O)ccc3nc2-1` [HCPT, 10-hydroxycamptothecin], the “overt toxicity (cell images)” value in data set [1] (HCPT 50 nM or 500 nM) is given as “without being overtly toxic; also recorded: with out being overtly toxic”. For the same compound, the “formation of myofibroblasts (cell images)” value in data set [1] (HCPT 50 nM or 500 nM, TGFβ) is “not in samples treated with HCPT or SNC; also recorded: not in samples with HCPT or salinomycin (SNC)”. Besides, the “myofibroblast formation (relative αSMA expression)” value in data set [1] (HCPT 50 nM to 500 nM, TGFβ) was “potently blocks myofibroblast formation; also recorded: dose-dependent inhibition of αSMA”; in data set [2] it was “less effective in blocking myofibroblast formation; also recorded: potently blocks myofibroblast formation”; in data set [3] it was “potently blocks myofibroblast formation; also recorded: dose-dependent inhibition of αSMA”.

Values taken from patent US10548911B2, “Small molecule anti-scarring agents” (UNIVERSITY OF ROCHESTER, priority 2014, dated 2020).
